Results: ChEMBL document CHEMBL3991601, “The target landscape of clinical kinase drugs” (Science, 2017)
Activity calls are given as the source filed them. For most assays here, no stated cut-off is given here; in the data, actives have a measured Kd and inactives only a lower limit.

Columns and labels:
LIM domain kinase 1 = LIM domain kinase 1 (Homo sapiens, UniProt P53667)
[1] = target: Ribosomal protein S6 kinase alpha-1 (Homo sapiens, UniProt Q15418)
[2] = target: T1, Serine/threonine-protein kinase Nek1 (Homo sapiens, UniProt Q96PY6)
T1 sequence (Q96PY6 whole entry): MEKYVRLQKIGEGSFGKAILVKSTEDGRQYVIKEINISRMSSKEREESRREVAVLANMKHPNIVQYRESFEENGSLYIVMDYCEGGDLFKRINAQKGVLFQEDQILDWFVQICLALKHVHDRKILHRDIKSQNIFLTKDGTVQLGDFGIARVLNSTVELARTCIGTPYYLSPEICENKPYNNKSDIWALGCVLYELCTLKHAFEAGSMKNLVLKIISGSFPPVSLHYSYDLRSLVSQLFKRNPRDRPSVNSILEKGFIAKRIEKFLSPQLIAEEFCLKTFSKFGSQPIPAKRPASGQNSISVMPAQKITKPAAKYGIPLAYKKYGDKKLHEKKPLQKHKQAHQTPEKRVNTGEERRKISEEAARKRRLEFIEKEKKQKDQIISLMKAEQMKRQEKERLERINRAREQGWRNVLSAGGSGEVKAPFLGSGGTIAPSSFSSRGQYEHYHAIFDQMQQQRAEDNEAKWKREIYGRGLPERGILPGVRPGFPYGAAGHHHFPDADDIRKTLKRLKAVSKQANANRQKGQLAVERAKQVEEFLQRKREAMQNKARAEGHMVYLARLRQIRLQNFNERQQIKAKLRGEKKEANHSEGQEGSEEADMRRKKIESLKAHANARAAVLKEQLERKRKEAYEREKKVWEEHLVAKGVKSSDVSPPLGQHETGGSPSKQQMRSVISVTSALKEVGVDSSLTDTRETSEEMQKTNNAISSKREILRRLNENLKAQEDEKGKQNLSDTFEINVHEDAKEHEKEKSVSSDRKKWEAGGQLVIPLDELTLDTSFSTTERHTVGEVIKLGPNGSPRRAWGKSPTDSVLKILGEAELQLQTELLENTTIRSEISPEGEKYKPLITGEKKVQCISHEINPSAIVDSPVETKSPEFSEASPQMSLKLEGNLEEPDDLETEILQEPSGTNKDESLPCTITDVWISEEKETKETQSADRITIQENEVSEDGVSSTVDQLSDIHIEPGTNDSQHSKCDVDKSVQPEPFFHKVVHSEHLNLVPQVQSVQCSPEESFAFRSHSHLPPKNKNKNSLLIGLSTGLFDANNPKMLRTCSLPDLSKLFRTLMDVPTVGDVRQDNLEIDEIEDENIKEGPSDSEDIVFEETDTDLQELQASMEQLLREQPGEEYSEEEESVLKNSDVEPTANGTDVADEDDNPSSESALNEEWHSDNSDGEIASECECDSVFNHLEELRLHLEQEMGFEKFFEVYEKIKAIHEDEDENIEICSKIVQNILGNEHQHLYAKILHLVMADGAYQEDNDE

[3] = target: Serine/threonine-protein kinase PAK 4 (Homo sapiens, UniProt O96013)
[4] = target: T2, Mitogen-activated protein kinase kinase kinase kinase 2 (Homo sapiens, UniProt Q12851)
T2 sequence (Q12851 whole entry): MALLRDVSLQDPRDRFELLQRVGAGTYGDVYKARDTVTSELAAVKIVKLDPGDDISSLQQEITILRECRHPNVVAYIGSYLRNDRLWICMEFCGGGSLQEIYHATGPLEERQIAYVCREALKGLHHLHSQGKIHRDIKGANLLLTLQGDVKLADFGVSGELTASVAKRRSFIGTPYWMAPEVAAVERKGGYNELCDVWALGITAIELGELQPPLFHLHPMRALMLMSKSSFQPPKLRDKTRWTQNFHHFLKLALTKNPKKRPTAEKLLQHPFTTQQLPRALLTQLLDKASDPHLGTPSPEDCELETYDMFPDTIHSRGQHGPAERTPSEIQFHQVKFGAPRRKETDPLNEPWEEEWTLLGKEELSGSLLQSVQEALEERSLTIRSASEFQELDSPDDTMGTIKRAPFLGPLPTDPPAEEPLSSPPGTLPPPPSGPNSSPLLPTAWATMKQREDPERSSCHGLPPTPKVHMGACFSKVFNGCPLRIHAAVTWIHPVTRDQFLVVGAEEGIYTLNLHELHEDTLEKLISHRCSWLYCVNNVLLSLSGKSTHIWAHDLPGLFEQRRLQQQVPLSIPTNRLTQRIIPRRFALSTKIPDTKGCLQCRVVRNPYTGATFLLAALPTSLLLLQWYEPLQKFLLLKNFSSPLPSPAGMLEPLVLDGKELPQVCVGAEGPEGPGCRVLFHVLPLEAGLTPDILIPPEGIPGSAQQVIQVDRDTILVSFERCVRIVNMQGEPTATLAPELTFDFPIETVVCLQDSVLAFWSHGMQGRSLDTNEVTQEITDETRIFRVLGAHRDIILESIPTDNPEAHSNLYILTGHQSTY

[5] = target: Elongation factor Tu, mitochondrial (Homo sapiens, UniProt P49411)
Pyridoxal kinase = target: T3, Pyridoxal kinase (Homo sapiens, UniProt O00764)
T3 sequence (O00764 whole entry): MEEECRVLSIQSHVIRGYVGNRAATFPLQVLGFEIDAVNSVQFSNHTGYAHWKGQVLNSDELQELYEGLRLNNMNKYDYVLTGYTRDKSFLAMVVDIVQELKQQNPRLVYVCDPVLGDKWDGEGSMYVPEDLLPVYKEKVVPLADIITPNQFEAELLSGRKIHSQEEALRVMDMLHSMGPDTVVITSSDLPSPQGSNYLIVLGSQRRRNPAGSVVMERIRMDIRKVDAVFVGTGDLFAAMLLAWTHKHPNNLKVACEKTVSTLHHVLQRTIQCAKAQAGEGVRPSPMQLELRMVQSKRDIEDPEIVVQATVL

[6] = target: Cyclin-dependent kinase 1 (Homo sapiens, UniProt P06493)
[7] = target: Calcium/calmodulin-dependent protein kinase type II subunit gamma (Homo sapiens, UniProt Q13555)
Calcium/calmodulin-dependent protein kinase type II subunit gamma, sequence (Q13555 whole entry): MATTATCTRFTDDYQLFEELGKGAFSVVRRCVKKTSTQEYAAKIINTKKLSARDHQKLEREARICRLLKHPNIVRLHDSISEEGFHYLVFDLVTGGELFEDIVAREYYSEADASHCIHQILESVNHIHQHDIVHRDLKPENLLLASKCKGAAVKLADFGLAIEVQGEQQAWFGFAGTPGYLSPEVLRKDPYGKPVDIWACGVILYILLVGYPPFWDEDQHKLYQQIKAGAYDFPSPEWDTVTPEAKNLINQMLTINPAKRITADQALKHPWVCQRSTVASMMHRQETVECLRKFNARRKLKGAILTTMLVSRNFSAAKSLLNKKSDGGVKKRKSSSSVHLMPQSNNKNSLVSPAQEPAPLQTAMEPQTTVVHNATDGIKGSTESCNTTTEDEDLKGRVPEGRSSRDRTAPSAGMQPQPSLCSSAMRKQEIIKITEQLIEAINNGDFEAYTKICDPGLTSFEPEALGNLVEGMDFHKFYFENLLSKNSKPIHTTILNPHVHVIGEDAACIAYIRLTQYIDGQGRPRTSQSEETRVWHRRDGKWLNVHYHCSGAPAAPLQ

Ribosomal protein S6 kinase alpha-1, sequence (Q15418 whole entry): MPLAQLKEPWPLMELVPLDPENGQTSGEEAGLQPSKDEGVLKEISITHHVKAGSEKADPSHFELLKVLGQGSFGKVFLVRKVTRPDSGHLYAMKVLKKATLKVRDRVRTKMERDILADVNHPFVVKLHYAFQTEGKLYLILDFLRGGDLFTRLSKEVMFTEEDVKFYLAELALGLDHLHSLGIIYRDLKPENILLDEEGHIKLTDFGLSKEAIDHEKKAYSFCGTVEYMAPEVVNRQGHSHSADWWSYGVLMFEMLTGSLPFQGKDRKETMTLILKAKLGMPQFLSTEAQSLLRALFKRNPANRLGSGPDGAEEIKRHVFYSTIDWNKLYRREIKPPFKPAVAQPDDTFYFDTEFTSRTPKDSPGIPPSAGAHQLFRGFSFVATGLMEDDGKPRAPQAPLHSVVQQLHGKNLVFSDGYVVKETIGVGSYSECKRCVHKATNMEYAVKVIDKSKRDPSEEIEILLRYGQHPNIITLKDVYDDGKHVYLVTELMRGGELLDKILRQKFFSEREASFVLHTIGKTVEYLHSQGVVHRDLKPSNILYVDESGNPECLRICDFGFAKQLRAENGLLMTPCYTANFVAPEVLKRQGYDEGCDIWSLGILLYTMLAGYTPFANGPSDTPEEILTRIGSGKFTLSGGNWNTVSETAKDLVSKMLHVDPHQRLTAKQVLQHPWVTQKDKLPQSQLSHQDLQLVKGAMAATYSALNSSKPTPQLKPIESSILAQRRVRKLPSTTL
Serine/threonine-protein kinase PAK 4, sequence (O96013 whole entry): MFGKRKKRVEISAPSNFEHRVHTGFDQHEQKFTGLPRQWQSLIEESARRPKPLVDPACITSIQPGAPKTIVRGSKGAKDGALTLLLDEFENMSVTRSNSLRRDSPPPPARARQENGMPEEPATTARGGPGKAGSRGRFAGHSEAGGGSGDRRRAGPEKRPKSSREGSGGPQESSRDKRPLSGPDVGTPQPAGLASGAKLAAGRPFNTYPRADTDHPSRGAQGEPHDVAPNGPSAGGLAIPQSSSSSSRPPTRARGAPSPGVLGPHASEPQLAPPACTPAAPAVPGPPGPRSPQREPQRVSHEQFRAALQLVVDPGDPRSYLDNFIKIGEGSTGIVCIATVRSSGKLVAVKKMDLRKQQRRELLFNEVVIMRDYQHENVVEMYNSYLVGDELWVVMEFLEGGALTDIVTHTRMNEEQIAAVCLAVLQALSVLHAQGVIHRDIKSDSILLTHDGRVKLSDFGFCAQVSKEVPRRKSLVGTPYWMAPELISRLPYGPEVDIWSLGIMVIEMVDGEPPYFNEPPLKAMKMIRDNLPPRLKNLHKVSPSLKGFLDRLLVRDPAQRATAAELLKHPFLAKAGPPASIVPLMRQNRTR
Cyclin-dependent kinase 1, sequence (P06493 whole entry): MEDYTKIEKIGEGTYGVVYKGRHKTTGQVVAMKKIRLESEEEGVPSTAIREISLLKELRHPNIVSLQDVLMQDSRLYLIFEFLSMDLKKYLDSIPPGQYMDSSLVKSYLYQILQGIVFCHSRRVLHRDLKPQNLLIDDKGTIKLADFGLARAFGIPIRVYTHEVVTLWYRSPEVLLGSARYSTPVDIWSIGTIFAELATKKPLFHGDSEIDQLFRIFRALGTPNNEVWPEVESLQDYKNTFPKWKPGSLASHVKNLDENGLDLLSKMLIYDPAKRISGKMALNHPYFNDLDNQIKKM
LIM domain kinase 1, sequence (P53667 whole entry, the tested form may be a part): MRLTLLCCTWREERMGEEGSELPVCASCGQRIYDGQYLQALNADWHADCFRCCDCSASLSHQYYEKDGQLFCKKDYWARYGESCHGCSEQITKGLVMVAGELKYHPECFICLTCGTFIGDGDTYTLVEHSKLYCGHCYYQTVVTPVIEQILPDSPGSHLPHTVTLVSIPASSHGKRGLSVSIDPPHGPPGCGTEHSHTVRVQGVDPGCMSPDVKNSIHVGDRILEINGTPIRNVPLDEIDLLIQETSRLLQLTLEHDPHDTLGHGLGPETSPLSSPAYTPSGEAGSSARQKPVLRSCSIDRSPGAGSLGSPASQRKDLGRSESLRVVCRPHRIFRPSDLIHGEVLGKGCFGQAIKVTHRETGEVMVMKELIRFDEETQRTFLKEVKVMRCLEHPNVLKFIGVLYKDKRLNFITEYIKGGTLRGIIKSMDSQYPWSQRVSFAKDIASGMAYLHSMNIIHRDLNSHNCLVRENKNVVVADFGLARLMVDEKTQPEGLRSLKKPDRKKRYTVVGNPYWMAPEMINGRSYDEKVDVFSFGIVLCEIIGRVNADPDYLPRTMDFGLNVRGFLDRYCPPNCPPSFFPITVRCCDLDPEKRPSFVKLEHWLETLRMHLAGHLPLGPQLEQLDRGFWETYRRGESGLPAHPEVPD

Kd (LIM domain kinase 1) | Kd [1] | Kd [2] | Kd [3] | Kd [4] | Kd [5] | Kd (Pyridoxal kinase) | Kd [6] | Kd [7] | Compound
> 30 µM (inactive) | > 30 µM (inactive) | > 30 µM (inactive) | > 30 µM (inactive) | > 30 µM (inactive) | > 30 µM (inactive) | > 30 µM (inactive) | > 30 µM (inactive) | > 30 µM (inactive) | FC(F)(F)c1ccc(/C=C/c2nc(COc3ccc(CCCCn4ccnn4)cc3)co2)cc1 [MUBRITINIB]
> 30 µM (inactive) | > 30 µM (inactive) | > 30 µM (inactive) | > 30 µM (inactive) | > 30 µM (inactive) | > 30 µM (inactive) | > 30 µM (inactive) | > 30 µM (inactive) | > 30 µM (inactive) | COc1ncc(-c2ccc3nccc(-c4ccnnc4)c3c2)cc1NS(=O)(=O)c1ccc(F)cc1F [OMIPALISIB]
> 30 µM (inactive) | > 30 µM (inactive) | > 30 µM (inactive) | > 30 µM (inactive) | > 30 µM (inactive) | > 30 µM (inactive) | > 30 µM (inactive) | > 30 µM (inactive) | > 30 µM (inactive) | Cc1cnc(NC(=O)Nc2cc(Br)c(C)cc2OC[C@@H]2CNCCO2)cn1 [RABUSERTIB]
> 30 µM (inactive) | > 30 µM (inactive) | > 30 µM (inactive) | > 30 µM (inactive) | > 30 µM (inactive) | > 30 µM (inactive) | > 30 µM (inactive) | > 30 µM (inactive) | > 30 µM (inactive) | CO[C@H]1C[C@@H]2CC[C@@H](C)[C@@](O)(O2)C(=O)C(=O)N2CCCC[C@H]2C(=O)O[C@H]([C@H](C)C[C@@H]2CC[C@@H](OP(C)(C)=O)[C@H](OC)C2)CC(=O)[C@H](C)/C=C(\C)[C@@H](O)[C@@H](OC)C(=O)[C@H](C)C[C@H](C)/C=C/C=C/C=C/1C [RIDAFOROLIMUS]
> 30 µM (inactive) | > 30 µM (inactive) | > 30 µM (inactive) | > 30 µM (inactive) | > 30 µM (inactive) | > 30 µM (inactive) | > 30 µM (inactive) | > 30 µM (inactive) | > 30 µM (inactive) | N#CC1(c2ccc(NC(=O)c3cccnc3NCc3ccncc3)cc2)CCCC1 [RIVOCERANIB]
> 30 µM (inactive) | > 30 µM (inactive) | > 30 µM (inactive) | > 30 µM (inactive) | > 30 µM (inactive) | > 30 µM (inactive) | > 30 µM (inactive) | > 30 µM (inactive) | > 30 µM (inactive) | O=c1[nH]ccc2cc(OC3CCNCC3)ccc12 [SAR-407899 FREE BASE]
> 30 µM (inactive) | > 30 µM (inactive) | > 30 µM (inactive) | 2.9 µM | > 30 µM (inactive) | > 30 µM (inactive) | > 30 µM (inactive) | > 30 µM (inactive) | > 30 µM (inactive) | Cn1cc(-c2cnn3c(N)c(Br)c([C@@H]4CCCNC4)nc23)cn1 [SCH-900776]
> 30 µM (inactive) | > 30 µM (inactive) | > 30 µM (inactive) | > 30 µM (inactive) | > 30 µM (inactive) | > 30 µM (inactive) | > 30 µM (inactive) | > 30 µM (inactive) | > 30 µM (inactive) | CO[C@H]1C[C@@H]2CC[C@@H](C)[C@@](O)(O2)C(=O)C(=O)N2CCCC[C@H]2C(=O)O[C@H]([C@H](C)C[C@@H]2CC[C@@H](O)[C@H](OC)C2)CC(=O)[C@H](C)/C=C(\C)[C@@H](O)[C@@H](OC)C(=O)[C@H](C)C[C@H](C)/C=C/C=C/C=C/1C [SIROLIMUS]
> 30 µM (inactive) | > 30 µM (inactive) | > 30 µM (inactive) | > 30 µM (inactive) | > 30 µM (inactive) | > 30 µM (inactive) | > 30 µM (inactive) | > 30 µM (inactive) | > 30 µM (inactive) | CO[C@H]1C[C@@H]2CC[C@@H](C)[C@@](O)(O2)C(=O)C(=O)N2CCCC[C@H]2C(=O)O[C@H]([C@H](C)C[C@@H]2CC[C@@H](OC(=O)C(C)(CO)CO)[C@H](OC)C2)CC(=O)[C@H](C)/C=C(\C)[C@@H](O)[C@@H](OC)C(=O)[C@H](C)C[C@H](C)/C=C/C=C/C=C/1C [TEMSIROLIMUS]
> 30 µM (inactive) | > 30 µM (inactive) | > 30 µM (inactive) | > 30 µM (inactive) | > 30 µM (inactive) | > 30 µM (inactive) | > 30 µM (inactive) | > 30 µM (inactive) | > 30 µM (inactive) | COc1cc2c(Nc3ccc(Cl)c(Cl)c3F)ncnc2cc1OC[C@@H]1C[C@@H]2CN(C)C[C@@H]2C1 [TESEVATINIB]
> 30 µM (inactive) | > 30 µM (inactive) | > 30 µM (inactive) | > 30 µM (inactive) | > 30 µM (inactive) | > 30 µM (inactive) | > 30 µM (inactive) | > 30 µM (inactive) | > 30 µM (inactive) | O=C(Cc1ccc(-c2ccc(OCCN3CCOCC3)cc2)cn1)NCc1ccccc1 [TIRBANIBULIN]

Compound | Kd (LIM domain kinase 1) | Kd [1] | Kd [2] | Kd [3] | Kd [4] | Kd [5] | Kd (Pyridoxal kinase) | Kd [6] | Kd [7]
CCCCCCCCCCCCCCCCCCOP(=O)([O-])OC1CC[N+](C)(C)CC1 [PERIFOSINE] | > 30 µM (inactive) | > 30 µM (inactive) | > 30 µM (inactive) | > 30 µM (inactive) | > 30 µM (inactive) | > 30 µM (inactive) | > 30 µM (inactive) | > 30 µM (inactive) | > 30 µM (inactive)
CNC(=O)c1cc(Oc2ccc(NC(=O)Nc3cc(C(C)(C)C)nn3-c3ccc4ncccc4c3)c(F)c2)ccn1 [REBASTINIB] | 0.535 µM (active) | > 30 µM (inactive) | > 30 µM (inactive) | > 30 µM (inactive) | 1.06 µM (active) | > 30 µM (inactive) | > 30 µM (inactive) | 1.07 µM (active) | > 30 µM (inactive)
CN1CCN(CCOc2cc(OC3CCOCC3)c3c(Nc4c(Cl)ccc5c4OCO5)ncnc3c2)CC1 [SARACATINIB] | > 30 µM (inactive) | > 30 µM (inactive) | > 30 µM (inactive) | > 30 µM (inactive) | > 30 µM (inactive) | > 30 µM (inactive) | > 30 µM (inactive) | > 30 µM (inactive) | > 30 µM (inactive)
